Reference: patent US20250221981A1, “MAT2A INHIBITOR AND/OR TSG101 INHIBITOR FOR USE IN ANTIVIRAL THERAPY” (CAMBRIDGE ENTERPRISE LIMITED, priority 2022, published 2025)

Assays:
BKPyV [1] = experiment: Fluorescence focus unit (FFU) assay of infectious BKPyV from treated RPTE/TERT1 cells; assay type: cell-based, BK polyomavirus; conditions: added 1 hr post infection, MOI 1
Description: (B) Effect of PF-9366 on viral replication: Cells were infected with BKPyV (MOI 1) in media containing appropriate drug concentrations. At 1 hpi infectious media was removed, cells were washed and fresh media with appropriate drug concentrations was added. At 48 hpi cells were harvested and infectious BKPyV was measured by FFU assay. n=3.
(§1) Cells were treated with MAT2A inhibitors at 1 hr post infection and were harvested at 48 hr post infection at MOI 1. (A) Total infectious BKPyV synthesis expressed as fold change to DMSO control (FFU titre assay). (B) Total viral protein expression (LTAg and VP1) was analysed by western blot. Tubulin was used as loading control. All error bars represent SEM. Two sample paired T-test was used to determine significance (*p<0.05; **p<0.01; ***p<0.001, ****p<0.0001), all numerical data shown were obtained over 2 independent experiments.
(§2) RPTE/hTERT cells were treated with inhibitors at 1 hr post infection (PI), infected at MOI 1. (A) Viral growth curves using FFU titre assay in drug treated and untreated cells infected with BKPyV at MOI 1 for 48 hr PI, 72 hr PI and 96 hr PI. (B) Total viral protein expression (LTAg and VP1) from drug treatments and untreated control was analysed by western blot with samples harvested at 48 hr PI and 96 hr PI. Tubulin was used as loading control. All error bars represent SEM. All numerical data shown were obtained over 2 independent experiments.
The ability for PF-9366 to inhibit the production of infectious virus was then investigated. RPTE/TERT1 cells were once again treated with a concentration range of PF-9366 or DMSO as a control prior to infection, and as before, infected with BKPyV (MOI 1) then washed and media replaced at 1 hpi. At 48 hpi total virus was harvested from each condition and an FFU assay was conducted to determine BKPyV virus titre (FIG. 3B).
For BKPyV infections, RPTE/TERT1, RPTE/TERT1-Cas9 or RPTE/TERT1 MAT2A KO cells were infected with BKPyV at either a multiplicity of infection (MOI) of 5 for growth curves or an MOI of 3 or 1 for all other experiments, diluted in appropriate medium. At 1 hour post infection (hpi) medium was removed, cells were washed twice with phosphate-buffered saline (PBS), and fresh medium was added with or without inhibitors. At 24, 48, 72 or 96 hpi cells were either harvested for western blot, RT qPCR or virus titre by FFU assay, or fixed for immunofluorescence analysis.
FFU assays were used to determine the concentration of infectious BKPyV in experimental samples. RPTE/TERT1 cells were infected with sample dilutions, fixed at 48 hpi in 3% formaldehyde, and immunostained for VP1 expression as described in Evans et al. (Open Biol. 2015 August; 5 (8): 150041).
Example 1: PF-9366 (Sigma-Aldrich) and AG-270 (kindly supplied by Astra Zeneca) were diluted in 100% DMSO. Cells were drug treated at a range of concentrations in REBM supplemented with BulletKit (Lonza) for 3 hours prior to infection. Cells were infected with BK-Dunlop in media and appropriate drug dilution. At 1 hpi infectious media was removed, cells gently washed with PBS and media containing appropriate drug dilutions was added. At 48 hpi cells were either fixed in 3% formaldehyde for microscopy, or harvested by scraping up into fresh drug-free media.
TSG101 inhibitor Ilaprazole (Sigma-Aldrich) was diluted in 100% DMSO. Cells were treated at a range of inhibitor concentrations and combinations, in appropriate media for the cell type used, for either 3 hours prior to infection (HSV-1, Alphavirus and Flavivirus infections) or 1 hour post infection (BKPyV infection).

BKPyV [2] = experiment: Western blot of BKPyV viral protein expression (LTAg, VP1) in RPTE/TERT1 cells; assay type: cell-based, BK polyomavirus; conditions: MOI 1
Description: (C)(i) Effect of PF-9366 on viral early and late gene and cellular MAT2A expression: Cells were infected with BKPyV (MOI 3) in media containing appropriate drug concentrations. At 1 hpi infectious media was removed, cells were washed and fresh media with appropriate drug concentrations was added. Cells were harvested at 48 hpi and a western blot performed. Membranes were blotted for viral late gene VP1, LTAg, cellular MAT2A/MAT1A, and tubulin as a loading control.
(iii) Viral gene expression is modulated in response to PF-9366: The density of BKPyV VP1 and LTAg expression were measured, normalized to tubulin loading control (LiCor Image Studio Software), n=3.
as §1, §2
It has previously been noted by Quinlan et al. (Nat Chem Biol. 2017 13 (7): 785-792) that treatment with PF-9366 can increase MAT2A expression as a compensatory mechanism within cells. To investigate this, cells were once again treated with a range of PF-9366 for 3 hours prior to infection (or DMSO treated). Cells were infected with BKPyV (MOI 3), washed at 1 hpi, and fresh drug treated media was added. At 48 hpi cells were harvested and protein expression was analysed by western blotting (FIG. 3C(i)). MAT2A expression was quantified from band intensities, normalised to the tubulin loading control and plotted (FIG. 3C(ii), n=3). A clear increase in the cellular expression of MAT2A was observed, up to an 8-fold increase at 10 μM PF-9366. Western blot analysis was also conducted on early viral gene (LTAg) and late viral gene (VP1) expression (FIG. 3C(iii), n=3).
Cell lysate preparation and western blots were performed as described in Ren et al. (J Gen Virol. 2012 February; 93 (Pt 2): 319-329). Primary antibodies used were ab53977 (VP1), PAb416 (LTAg), sc-166452 (MAT2A/1A), ab110226 (VP16), sc-53070 (ICP0), anti-Zika E Protein, and either anti-GAPDH or anti-tubulin as a loading control, followed by IRDye 680LT-, or IRDye 800CW-conjugated secondary antibodies. Imaging was performed using the LI-COR Odyssey Infrared Imaging system. Quantification was performed using LI-COR Image Studio Software.

RPTE/hTERT cells = experiment: Cell viability assay, CellTiter-Blue fluorescence
Description: RPTE/hTERT cells were treated with MAT2A inhibitors at increasing concentrations for 48 hrs and assayed for cell viability using CellTiter-Blue fluorescence. Experiments were conducted using biological triplicates.
Experiment was conducted using biological triplicates.
Cell viability was assessed using the Cell-Titer-Blue assay (Promega), following manufacturers guidelines.

[3] = 125 nM to 1 μM, dose dependent, 48 hr post infection

Row | SMILES | inhibition of BKPyV replication (total infectious BKPyV, FFU titre) (BKPyV [1]; 125 nM, 250 nM, 500 nM and 1 μM, 48 hr post infection) | early viral protein (LTAg) levels (western blot) (BKPyV [2]; [3]) | late viral protein (VP1) levels (western blot) (BKPyV [2]; [3]) | effect on cell viability and metabolism (RPTE/hTERT cells; at concentrations inhibiting BKPyV replication, 48 hrs) | BKPyV viral replication (FFU titre) (BKPyV [1]; Ilaprazole alone) | BKPyV protein expression (LTAg and VP1, western blot) (BKPyV [2]; Ilaprazole alone, 48 and 96 hr PI) | effect on cell viability (RPTE/hTERT cells; Ilaprazole alone, every 48 hr until 144 hr)
1 | CN(C)c1nc(=O)n(-c2ccccc2)c2cc(Cl)ccc12 [AZ28] | significant dose dependent inhibition | reduced | reduced | little effect | – | – | –
2 | COc1ccnc(C[S+]([O-])c2nc3cc(-n4cccc4)ccc3[nH]2)c1C (stereo not shown) [Ilaprazole] | – | – | – | – | significantly inhibit | significantly inhibit | little effect
